Among the data in patent publication US12251387B2, “Substituted quinoxalines and benzo[c][1,2,5]oxadiazoles as DNA-PK inhibitors” (Vertex Pharmaceuticals Incorporated, priority 2013, dated 2025) are Ki values, retold here.

The test deals with DNA-PK (Homo sapiens, UniProt P78527). Description: DNA-PK Inhibition Assay (standard radiometric kinase assay, 33P-ATP, peptide substrate). Type of test: biochemical. The settings on record: radiometric assay, approximately 6 nM DNA-PK, 100 μM ATP, 45 min; fit to competitive tight-binding inhibition; read-out: Ki for the inhibition of DNA-PK. An outline of the steps:
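Radiometric transfer of 33P from ATP (100 μM) to peptide substrate (0.8 mg/mL) by about 6 nM DNA-PK with 10 μg/mL sheared dsDNA, pH 7.5 HEPES/MgCl2, 45 min, phosphoric acid quench, filter capture and scintillation counting. Ki fitted to a competitive tight-binding inhibition model.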

As usually defined, the Ki is the equilibrium dissociation constant of an inhibitor or competing ligand from its target. As to `CNc1nc(N[C@H]2CC[C@@H](Oc3cc(N4CCOCC4)cc4nccnc34)CC2)cc(=O)[nH]1` [Compound 400], the Ki was less than 100 nM.
For `CC(C)Nc1cnc(N[C@H]2CC[C@@H](Oc3cc(N4CCOCC4)cc4nccnc34)CC2)nc1` [Compound 152], the inhibition constant Ki was less than 100 nM.
As for `CN(C)c1ccnc(N[C@H]2CC[C@@H](Oc3cc(N4CCOCC4)cc4nccnc34)CC2)n1` [Compound 489], the Ki was less than 100 nM.
Consider `COc1nc(Cl)nc(N[C@H]2CC[C@@H](Oc3cc(N4CCOCC4)cc4nccnc34)CC2)n1` [Compound 609], for which the Ki was less than 100 nM.
Regarding `c1cnc2c(O[C@H]3CC[C@@H](Nc4cc5ncnn5cn4)CC3)cc(N3CCOCC3)cc2n1` [Compound 510], the Ki is less than 100 nM.
On to `Cc1ncc(N)c(N[C@H]2CC[C@@H](Oc3cc(N4CCOCC4)cc4nccnc34)CC2)n1` [Compound 369], for which the inhibition constant (Ki) was less than 100 nM.
Take `Cc1cnc(N[C@H]2CC[C@@H](Oc3cc(N4CCOCC4)cc4nccnc34)CC2)c(C)n1` [Compound 323]: the Ki is less than 100 nM.
Regarding `CN1CCC(NC(=O)N[C@H]2CC[C@@H](Oc3cc(N4CCOCC4)cc4nccnc34)CC2)CC1` [Compound 363], the Ki is less than 100 nM.
On to `CNC(=O)c1ccnc(N[C@H]2CC[C@@H](Oc3cc(N4CC5CC(C4)O5)cc4nccnc34)CC2)n1` [Compound 317], for which the Ki was less than 100 nM.
With `CC(C)(O)CNc1ncnc(N[C@H]2CC[C@@H](Oc3cc(N4CCOCC4)cc4nccnc34)CC2)c1F` [Compound 377] the figure was less than 100 nM; with `CCc1ncnc(N[C@H]2CC[C@@H](Oc3cc(C4=CCOCC4)cc4nccnc34)CC2)c1F` [Compound 295], less than 100 nM; with `CN(C)CCOc1ccc(N[C@H]2CC[C@@H](Oc3cc(N4CCOCC4)cc4nccnc34)CC2)nc1` [Compound 654], less than 100 nM.
`Cc1ccnc(N[C@H]2CC[C@@H](Oc3cc(N4CCOCC4)cc4nccnc34)CC2)c1` [Compound 283]: the Ki is less than 100 nM.
Turning to `COC(=O)c1ccc(N[C@H]2CC[C@@H](Oc3cc(N4CCOCC4)cc4nccnc34)CC2)cc1OC` [Compound 394], the Ki was less than 100 nM.
For the molecule `CN(C)CCOc1ncnc(N[C@H]2CC[C@@H](Oc3cc(N4CCOCC4)cc4nccnc34)CC2)c1F` [Compound 362], the Ki was less than 100 nM.
As to `CNC(=O)c1cc(N[C@H]2CC[C@@H](Oc3cc(N4CC5CC(C4)O5)cc4nccnc34)CC2)ncn1` [Compound 315], the Ki was less than 100 nM.
For the molecule `Fc1ccc(N[C@H]2CC[C@@H](Oc3cc(N4CCOCC4)cc4nccnc34)CC2)nc1` [Compound 622], the Ki was less than 100 nM.
With `CCc1ncnc(N[C@H]2CC[C@@H](Oc3cc(N4CC5CC(C4)O5)cc4nccnc34)CC2)c1F` [Compound 318] the figure was less than 100 nM; with `Cn1nnc(-c2cnc(N[C@H]3CC[C@@H](Oc4cc(N5CCOCC5)cc5nccnc45)CC3)nc2)n1` [Compound 458], less than 100 nM; with `Cc1cc(C)n2nc(N[C@H]3CC[C@@H](Oc4cc(N5CCOCC5)cc5nccnc45)CC3)nc2n1` [Compound 299], less than 100 nM.
As for `O=C1Cc2cnc(N[C@H]3CC[C@@H](Oc4cc(N5CCOCC5)cc5nccnc45)CC3)nc2N1` [Compound 552], the Ki is less than 100 nM.
With `Cc1ncnc(N[C@H]2CC[C@@H](Oc3cc(N4CCOCC4)cc4nccnc34)CC2)c1F` [Compound 477] the figure was less than 100 nM; with `Oc1nc(N[C@H]2CC[C@@H](Oc3cc(N4CCOCC4)cc4nccnc34)CC2)nc(C2CC2)n1` [Compound 600], less than 100 nM; with `Clc1nccc(N[C@H]2CC[C@@H](Oc3cc(N4CCOCC4)cc4nccnc34)CC2)n1` [Compound 533], less than 100 nM.
On to `CCN(CC)C(=O)N[C@H]1CC[C@@H](Oc2cc(N3CCOCC3)cc3nccnc23)CC1` [Compound 413], for which the Ki was less than 100 nM.
For `COc1ccc(N[C@H]2CC[C@@H](Oc3cc(N4CCOCC4)cc4nccnc34)CC2)cn1` [Compound 447], the Ki was less than 100 nM.
In the case of `Cc1ncnc(N[C@H]2CC[C@@H](Oc3cc(N4CCOCC4)cc4nccnc34)CC2)c1C` [Compound 491], the Ki is less than 100 nM.
To `CN(C)c1nccc(N[C@H]2CC[C@@H](Oc3cc(N4CCOCC4)cc4nccnc34)CC2)n1` [Compound 453] belongs less than 100 nM; to `Cc1cc(N[C@H]2CC[C@@H](Oc3cc(N4CCOCC4)cc4nccnc34)CC2)n[nH]1` [Compound 637], less than 100 nM; to `Fc1c(NC2CCOC2)ncnc1N[C@H]1CC[C@@H](Oc2cc(N3CCOCC3)cc3nccnc23)CC1` (some centres unmarked) [Compound 379], less than 100 nM.
In the case of `COc1ncccc1N[C@H]1CC[C@@H](Oc2cc(N3CCOCC3)cc3nccnc23)CC1` [Compound 445], the Ki is less than 100 nM.
For `CC1(C)CC(c2cnc(N[C@H]3CC[C@@H](Oc4cc(N5CCOCC5)cc5nccnc45)CC3)nc2)CC(C)(C)N1` [Compound 550], the Ki was less than 100 nM.
`Fc1cccnc1N[C@H]1CC[C@@H](Oc2cc(N3CCOCC3)cc3nccnc23)CC1` [Compound 591]: the Ki was less than 100 nM.
For `Cc1cnc2c(O[C@H]3CC[C@@H](Nc4ncc(C5CCN(C)CC5)cn4)CC3)cc(N3CCOCC3)cc2n1` [Compound 543], the Ki was less than 100 nM.
As to `Cc1nc(N[C@H]2CC[C@@H](Oc3cc(N4CCOCC4)cc4nccnc34)CC2)cc(C2CC2)n1` [Compound 636], the Ki is less than 100 nM.
Consider `COc1cccnc1N[C@H]1CC[C@@H](Oc2cc(N3CCOCC3)cc3nccnc23)CC1` [Compound 592], for which the Ki was less than 100 nM.
Consider `c1cnc2nc(N[C@H]3CC[C@@H](Oc4cc(N5CCOCC5)cc5nccnc45)CC3)sc2c1` [Compound 330], for which the Ki is less than 100 nM.
On to `Fc1c(N[C@H]2CC[C@@H](Oc3cc(N4CCOCC4)cc4nccnc34)CC2)ncnc1C1CC1` [Compound 456], for which the Ki is less than 100 nM.
With `CN1CCN(CCOc2ccc(N[C@H]3CC[C@@H](Oc4cc(N5CCOCC5)cc5nccnc45)CC3)nc2)CC1` [Compound 655] the figure was less than 100 nM.
Take `CN1CCc2c(N[C@H]3CC[C@@H](Oc4cc(N5CCOCC5)cc5nccnc45)CC3)ncnc21` [Compound 473]: the Ki is less than 100 nM.
Turning to `CN1CCC[C@H]1CNc1ncnc(N[C@H]2CC[C@@H](Oc3cc(N4CCOCC4)cc4nccnc34)CC2)c1F` [Compound 359], the Ki is less than 100 nM.
Turning to `COc1ccnc(N[C@H]2CC[C@@H](Oc3cc(N4CCOCC4)cc4nccnc34)CC2)c1` [Compound 627], the Ki was less than 100 nM.
`CNC(=O)c1cccc(N[C@H]2CC[C@@H](Oc3cc(N4CCOCC4)cc4nccnc34)CC2)n1` [Compound 406]: the Ki is less than 100 nM.
To `c1cnc2c(O[C@H]3CC[C@@H](Nc4ncnc5[nH]ccc45)CC3)cc(N3CCOCC3)cc2n1` [Compound 515] belongs less than 100 nM; to `CN1CCN(c2ncnc(N[C@H]3CC[C@@H](Oc4cc(N5CCOCC5)cc5nccnc45)CC3)c2F)CC1` [Compound 474], less than 100 nM.
Take `CN1CC[C@@H](Nc2ncnc(N[C@H]3CC[C@@H](Oc4cc(N5CCOCC5)cc5nccnc45)CC3)c2F)C1` [Compound 327]: the Ki is less than 100 nM.
In the case of `CNC(=O)c1cc(N[C@H]2CC[C@@H](Oc3cc(N4CCOCC4)cc4nccnc34)CC2)ccc1F` [Compound 405], the Ki was less than 100 nM.
With `CN1CC[C@H](Nc2ncnc(N[C@H]3CC[C@@H](Oc4cc(N5CCOCC5)cc5nccnc45)CC3)c2F)C1` [Compound 343] the figure was less than 100 nM; with `OCc1cnc2cc(N3CCOCC3)cc(O[C@H]3CC[C@@H](Nc4ncccn4)CC3)c2n1` [Compound 617], less than 100 nM; with `Cc1cc2nc(N[C@H]3CC[C@@H](Oc4cc(N5CCOCC5)cc5nccnc45)CC3)cc(=O)n2o1` [Compound 596], less than 100 nM.
As for `CC(C)(C)OC(=O)N1CCC(c2ccnc(N[C@H]3CC[C@@H](Oc4cc(N5CCOCC5)cc5nccnc45)CC3)n2)CC1` [Compound 557], the Ki is less than 100 nM.
With `CN(C)Cc1cnc(N[C@H]2CC[C@@H](Oc3cc(N4CCOCC4)cc4nccnc34)CC2)nc1` [Compound 529] the figure was less than 100 nM; with `FC(F)(F)c1ccc(N[C@H]2CC[C@@H](Oc3cc(N4CCOCC4)cc4nccnc34)CC2)cn1` [Compound 427], less than 100 nM.
Turning to `COc1cccc(N[C@H]2CC[C@@H](Oc3cc(N4CCOCC4)cc4nccnc34)CC2)c1` [Compound 408], the Ki is less than 100 nM.
Turning to `Cc1noc(-c2ccc(N[C@H]3CC[C@@H](Oc4cc(N5CCOCC5)cc5nccnc45)CC3)nc2)n1` [Compound 278], the Ki is less than 100 nM.
For `FC(F)(F)c1cnc(N[C@H]2CC[C@@H](Oc3cc(N4CCOCC4)cc4nccnc34)CC2)nc1` [Compound 418], the Ki is less than 100 nM.
With `c1cc(CN2CCOCC2)nc(N[C@H]2CC[C@@H](Oc3cc(N4CCOCC4)cc4nccnc34)CC2)n1` [Compound 505] the figure was less than 100 nM; with `c1cnc2c(O[C@H]3CC[C@@H](Nc4ccn5nccc5n4)CC3)cc(N3CCOCC3)cc2n1` [Compound 498], less than 100 nM; with `COc1ncc(F)c(N[C@H]2CC[C@@H](Oc3cc(N4CCOCC4)cc4nccnc34)CC2)n1` [Compound 396], less than 100 nM.
As to `CN1CCN(c2ccc(N[C@H]3CC[C@@H](Oc4cc(N5CCOCC5)cc5nccnc45)CC3)nc2)CC1` [Compound 626], the Ki was less than 100 nM.
As to `Clc1cncc(N[C@H]2CC[C@@H](Oc3cc(N4CCOCC4)cc4nccnc34)CC2)n1` [Compound 374], the Ki is less than 100 nM.
For `CN(C)C(=O)N[C@H]1CC[C@@H](Oc2cc(N3CCOCC3)cc3nccnc23)CC1` [Compound 411], the Ki is less than 100 nM.
For the molecule `O=C(N[C@H]1CC[C@@H](Oc2cc(N3CCOCC3)cc3nccnc23)CC1)N1CCCCC1` [Compound 416], the Ki was less than 100 nM.
`CC(C)c1cc(N[C@H]2CC[C@@H](Oc3cc(N4CCOCC4)cc4nccnc34)CC2)ncn1` [Compound 652]: the Ki is less than 100 nM.
Regarding `CCc1cc(N[C@H]2CC[C@@H](Oc3cc(N4CCOCC4)cc4nccnc34)CC2)ncn1` [Compound 651], the Ki is less than 100 nM.
